Common to all, as to type: in vivo
The test system of experiment [1] is house flies (Musca domestica, L.). Kind of experiment: Fly Bait Test. Conditions: Musca domestica, 24 hours, read-out: Insect LD50, Housefly. How it is done: (§1) Suspensions of the test compouns were prepared by dissolving one gram of compound in 50 milliliters of acetone in which had been dissolved 0.1 gram (10 percent of the weight of compound) of an alkylphenoxy polyethoxyethanol surfactant, as an emulsifying or dispersing agent. The resulting solution was mixed into 150 milliliters of water to give roughly 200 milliliters of a suspension containing the compound in finely divided form. The thus-prepared stock suspension contained 0.5 percent by weight of compound. The test concentrations in parts per million by weight employed in the tests described hereinbelow were obtained by appropriate dilutions of the stock suspension with water. The test procedures were as follows:
Four to six day old adult house flies (Musca domestica, L.), reared according to the specifications of the Chemical Specialities Manufacturing Association (Blue Book, McNair-Dorland Co., N.Y. 1954; pages 243-244, 261) under controlled conditions of 80°±5° F. and 50±5 per cent relative humidity, were the test insects. The flies were immobilized by anesthetizing with carbon dioxide and twenty five immobilized individuals, males and females, were transferred to a cage consisting of a standard food strainer about five inches in diameter which was inverted over a wrapping-paper covered surface. The test compounds were formulated by diluting the stock suspension with a 10 per cent (by weight) sugar solution to give a suspension containing 500 parts of test compound per million parts of final formulation, by weight. Ten milliliters of the test formulation were added to a souffle cup containing a 1-inch square of an absorbent cotton pad. This bait cup was introduced and centered on the blotting paper under the food strainer prior to admitting the anesthetized flies. The caged flies were allowed to feed on the bait for 24 hours, at a temperature of 80°±5° F. and the relative humidity of 50±5 per cent.
(§2) In Table 1 are presented insect and rat toxicity data (bait tests) on a comparative basis of the compounds described above. […] Rat toxicity is also more meaningfully compared on the basis of molar weight LD50 values. The relative efficacy of the parent compounds as compared to the previously known derivatives and as compared to the new compounds of this invention is also shown in Table 1. The ratio of efficacy as contact poisons (immersion/bait) of the compounds tested against Armyworm and House Fly is presented in Table 2 along with the results of the phytotoxicity tests of the compounds on bean, corn, tomato and cotton.

Experiment [2] has as its system Mexican bean beetle (Epilachna varivestis, Muls.). Kind of experiment: Mexican Bean Beetle Leaf Spray Test. Conditions: 72 h, 3 days, read-out: Insect LD50, Beetle. How it is done: as §1
Mexican Bean Beetle Leaf Spray Test
Fourth instar lavae of the Mexican bean beetle (Epilachna varivestis, Muls.), reared on Tendergreen bean plants at a temperature of 80°±5° F. and 50±5 per cent relative humidity, were the test insects.
The test compounds were formulated by diluting the stock suspension with water to give a suspension containing 500 parts of test compound per million parts of final formulation. Potted Tendergreen bean plants of standard height and age were placed on a revolving turntable and sprayed with 100-110 milliliters of test comound formulation by use of a DeVilbiss spray gun set at 10 psig air pressure. This application, which lasted 25 seconds, was sufficient to wet plants to run-off. As a control, 100-110 milliliters of a water-acetone-emulsifier solution containing no test compound were also sprayed on infested plants. When dry, the paired leaves were separated and each was placed in a 9 centimeter Petri dish lined with moistened filter paper. Five randomly selected larvae were introduced into each dish, and the dishes were closed. The closed dishes were labeled and held at a temperature of 80°±5° F, for 3 days. Although the larvae could easily consume the leaf within 24 to 48 hours, no more food was added. Larvae which were unable to move the length of the body, even upon stimulation, were considered dead.

Experiment [3] deals with southern armyworm (Spodoptera eridania, (Cram.)). In words: Southern Armyworm Leaf Spray Bait Test. How it is done: as §1
Southern Armyworm Leaf Spray Bait Test
Larvae of the southern armyworm (Spodoptera eridania, (Cram.)), reared on Tendergreen bean plants at a temperature of 80°±5° F. and a relative humidity of 50±5 per cent, constituted the test insects.
The test compounds were formulated by diluting the stock suspension with water to give a suspension containing 500 parts of test compound per million parts of final formulation. Potted Tendergreen bean plants of standard height and age were placed on a revolving turntable and sprayed with 100-110 milliliters of test compound formulation by use of a DeVilbiss spray gun set at 10 psig air pressure. This application, which lasted 25 seconds, was sufficient to wet plants to run-off. As a control, 100-110 milliliters of a water-acetone-emulsifier solution containing no test compound were also sprayed on infested plants. When dry, the paired leaves were separated and each one was placed in a 9 centimeter Petri dish lined with moistened filter paper. Five randomly selected larvae were introduced into each dish and the dishes were closed. The closed dishes were labeled and held at 80°-85° F. for 3 days. Although the larvae could easily consume the whole leaf within 24 hours, no more food was added. Larvae which were unable to move the length of the body, even upon stimulation by prodding, were considered dead. Per cent mortality was recorded for various concentration levels.
as §2

Experiment [4] has as its system two-spotted mite (Tetranychus urticae Koch). Kind of experiment: Mite Foliage Spray Test. Conditions: foliar, 144 h, 6 days, read-out: Insect LD50, Mite. How it is done: as §1
Adults and nymphal stage of the two-spotted mite (Tetranychus urticae Koch), reared on Tendergreen bean plants at 80±5 per cent relative humidity, were the test organisms. Infested leaves from a stock culture were placed on the primary leaves of two bean plants 6 to 8 inches in height, growing in a 21/2 inch clay pot. 150-200 Mites, a sufficient number for testing, transferred from the excised leaves to the fresh plants in a period of twenty four hours. Following the twenty four hour transfer period, the excised leaves were removed from the infested plants. The test compounds were formulated by diluting the stock suspension with water to give a suspension containing 500 parts of test compound per million parts of final formulation. The potted plants (one pot per compound) were placed on a revolving turntable and sprayed with 100-110 milliliters of test compound formulation by use of a DeVilbiss spray gun set at 40 psig. air pressure. This application, which lasted 25 seconds, was sufficient to wet the plants to run-off. As a control, 100-110 milliliters of a water solution containing acetone and emulsifier in the same concentrations as the test compound formulation, but containing no test compound, were also sprayed on infested plants. The sprayed plants were held at 80±5 per cent relative humidity for 6 days, after which a mortality count of motile forms was made. Microscopic examination for motile forms was made on the leaves of the test plants. Any individual which was capable of locomotion upon prodding was considered living.

The subject of experiment [5] is bean aphid (Aphis fabae Scop.). Kind of experiment: Bean Aphid Foliage Spray Test. Conditions: foliar, 24 hour holding period, read-out: Insect LD50, Aphid. How it is done:
as §1
Bean Aphid Foliage Spray Test
Adults and nymphal stages of the bean aphid (Aphis fabae Scop.) reared on potted dwarf nasturtium plants at 65°-70° F. and 50-70 per cent relative humidity, constituted the test insects. For testing purposes, the number of aphids per pot was standardized to 100-150 by trimming plants containing excess aphids.
The test compounds were formulated by diluting the stock suspension with water to give a suspension containing 500 parts of test compound per million parts of final formulation.
The potted plants (one pot per compound tested) infested with 100-150 aphids, were placed on a revolving turntable and sprayed with 100 -110 milliliters of test compound formulation by use of a DeVilbiss spray gun set at 40 psig. air pressure. This application, which lasted 25 seconds, was sufficient to wet the plants to run-off. As a control, 100-110 milliliters of a water-acetone-emulsifier solution containing no test compound were also sprayed on infested plants. After spraying, the pots were placed on their sides on a sheet of white standard mimeograph paper which had peen previously ruled to facilitate counting. Temperature and humidity in the test room during the 24 hour holding period were 65°-70° F. and 50-70 per cent, respectively. Aphids which fell onto the paper and were unable to remain standing after being uprighted were considered dead. Aphids remaining on the plants were observed closely for movement and those which were unable to move the length of the body upon stimulation by prodding were considered dead. Per cent mortality was recorded for various concentration levels.

SMILES strings stand for the structures. ≈ marks a conversion by molar mass, not a printed value. Bounds are passed on as bounds.

Consider `CCSC(C)=NOC(=O)N(C)Sc1ccc(C(C)(C)C)cc1` [Compound 10], for which the LC50 in experiment [1] is 13 µg/mL (≈ 38.2 µM); in experiment [2] it was 20 µg/mL (≈ 58.7 µM); in experiment [3] (Spodoptera eridania, 72 h, leaf spray bait, 3 days, read-out: Insect LD50, Armyworm), 14 µg/mL (≈ 41.1 µM); in experiment [4], above 500 µg/mL; in experiment [5], 5 µg/mL (≈ 14.7 µM). Further, the “(b) relative efficacy of derivative vs parent compound, Armyworm” value in experiment [3] (bait, formula of footnote b is drawing 8) was 1.52.

The values are drawn from patent US3998963A, “Tertiary butyl substituted carbamoyl oxime pesticides” (priority 1975, dated 1976).
